According to patent publication US20190365843A1, “Antimicrobial Activity of Bioactive Compounds and Their Derivatives” (priority 2018, published 2019):

How the values were obtained:
ETEC = experiment: Agar diffusion growth inhibition zone, ETEC; type: cell-based, Enterotoxigenic E. coli; conditions: for inhibition of growth / zone of inhibition: ETEC; for zone of inhibition at 100000 µg/disc / zone of inhibition at 150000 µg/disc: Escherichia coli; for zone of inhibition: 6 mm = no activity
Description: (§7) Agar well diffusion method is widely used to evaluate the antimicrobial activity of plants or other synthetic products. The suspension (microbial inoculum) was used to inoculate into Muller Hinton Agar Petri plates by lawn culture. Well (diameter 6 mm) were punched in the agar by sterile borer and filled with 50 μl of dissolved extracts. Plates were incubated in incubator at 37° C. for 24 hours and measured the growth inhibition zone diameters in mm compared with that of control (DMSO) showing no growth. The antimicrobial agent diffuses in the agar medium and inhibits the growth of the microbial strain tested (Valgas et al., (2016) Methods for in vitro evaluating antimicrobial activity: A review. Journal of Pharmaceutical Analysis. 6(2):71-9).
(§8) Similar to the procedure used in Agar well diffusion method, the suspension (microbial inoculum) was used to inoculate into Muller Hinton Agar Petri plates by lawn culture. Then, filter paper discs (about 6 mm in diameter), containing the test compound at a desired concentration, were placed on the agar surface. The Petri dishes were incubated under suitable incubation conditions. Generally, antimicrobial agent diffuses into the agar and inhibits germination and growth of the test microorganism and then the diameters of inhibition growth zones are measured (Valgas et al., (2007) Screening methods to determine antibacterial activity of natural products. Brazilian Journal of Microbiology. 38:369-80; Balouiri M et al., (2016) Methods for in vitro evaluating antimicrobial activity: A review. Journal of Pharmaceutical Analysis. 6(2):71-9).

Citrobacter sp. = experiment: Agar diffusion growth inhibition zone, Citrobacter sp.; type: cell-based, Citrobacter species; conditions: 6 mm = no activity
Description: (§1) Among the bacterial agents tested Gram positive and Gram negative bacterial groups represented by Staphylococcus aureus and Enterococcus species and pathogenic members of Enterobacteriaceae, Vibronaceae, Aeromonadaceae, Pseudomonadaceae were tested. Freshly sub-cultured bacterial strains were inoculated into peptone water and incubated for 4 hours at 37° C. and adjusted to a turbidity of 0.5 (Gram Negative Bacilli), 1 (Gram Positive Cocci) and 4 (Pus cells, GNB, & few Budding yeast cells) Mc Farland standards (10^8 CFU/ml) respectively.
(§2) The different bioactive compounds and their derivatives were dissolved and diluted with solvents (DMSO), number of subsequent dilutions was performed to obtain different concentrations of the bioactive compounds and their derivatives. (Working Concentrations).
(§3) Agar well diffusion method is widely used to evaluate the antimicrobial activity of plants or other synthetic products. The suspension (microbial inoculum) was used to inoculate into Muller Hinton Agar Petri plates by lawn culture. Well (diameter 6 mm) were punched in the agar by sterile borer and filled with 50 μl of dissolved extracts. Plates were incubated in incubator at 37° C. for 24 hours and measured the growth inhibition zone diameters in mm compared with that of control (DMSO) showing no growth.
(§4) The bioactive compounds were tested with desired concentrations in 6 mm filter paper discs (Whatman, no. 3) were impregnated with 10 μL of each of the different dilutions. The discs were allowed to remain at room temperature until complete diluent evaporation and kept under refrigeration until ready to be used. 10 μL of diluents used to products were used as control. Tests were performed by Agar disk-diffusion testing method, which is the official method used in many clinical microbiology laboratories for routine antimicrobial susceptibility testing.
(§5) Similar to the procedure used in Agar well diffusion method, the suspension (microbial inoculum) was used to inoculate into Muller Hinton Agar Petri plates by lawn culture. Then, filter paper discs (about 6 mm in diameter), containing the test compound at a desired concentration, were placed on the agar surface. The Petri dishes were incubated under suitable incubation conditions.
(§6) Bioactive compounds showing zone of inhibition beyond the size of 6 mm are considered to be having an anti-microbial activity.

Enterococcus sp. = experiment: Agar diffusion growth inhibition zone, Enterococcus sp.; type: cell-based, Enterococcus species; conditions: 6 mm = no activity
Description: as §1, §2, §3, §4, §5, §6

Klebsiella sp. = experiment: Agar diffusion growth inhibition zone, Klebsiella sp.; type: cell-based, Klebsiella species; conditions: 6 mm = no activity
Description: as §1, §2, §3, §4, §5, §6

Aeromonas sp. = experiment: Agar diffusion growth inhibition zone, Aeromonas sp.; type: cell-based, Aeromonas species; conditions: for zone of inhibition at 100 mg/mL / zone of inhibition at 150 mg/mL / zone of inhibition: Aeromonas sp., 6 mm = no activity
Description: as §1, §2, §3, §4, §5, §6

E. coli ATCC 25922 = experiment: Agar diffusion growth inhibition zone, E. coli ATCC 25922; type: cell-based; conditions: 6 mm = no activity; for zone of inhibition at 100 mg/mL / zone of inhibition at 150 mg/mL: Escherichia coli; for zone of inhibition at 100 mg/mL: ATCC25922, 100 mg; for zone of inhibition at 150 mg/mL: ATCC25922, 150 mg
Description: as §1, §2, §3, §4, §5, §6

Shigella sp. = experiment: Agar diffusion growth inhibition zone, Shigella sp.; type: cell-based, Shigella species; conditions: for zone of inhibition at 100000 µg/disc / zone of inhibition at 150000 µg/disc: Shigella; for zone of inhibition: Shigella sp., 6 mm = no activity
Description: as §7, §8

Salmonella typhimurium = experiment: Agar diffusion growth inhibition zone, Salmonella typhimurium; type: cell-based; conditions: 6 mm = no activity; for zone of inhibition at 100 mg/mL / zone of inhibition at 150 mg/mL: Salmonella enterica
Description: as §1, §2, §3, §4, §5, §6

S. aureus = experiment: Agar diffusion growth inhibition zone, S. aureus; type: cell-based, Staphylococcus aureus; conditions: for zone of inhibition at 100 mg/mL / zone of inhibition at 150 mg/mL: Staphylococcus aureus
Description: as §1, §2, §3, §4, §5, §6

Vibrio cholera = experiment: Agar diffusion growth inhibition zone, Vibrio cholera; type: cell-based, Vibrio cholerae; conditions: for zone of inhibition at 100000 µg/disc / zone of inhibition at 150000 µg/disc: Vibrio cholerae; for zone of inhibition: Vibrio cholera, 6 mm = no activity
Description: as §7, §8

EAEC = experiment: Agar diffusion growth inhibition zone, EAEC; type: cell-based, Enteroaggregative E. coli; conditions: for zone of inhibition at 100 mg/mL / zone of inhibition at 150 mg/mL: Escherichia coli; for zone of inhibition at 100 mg/mL / zone of inhibition at 150 mg/mL / zone of inhibition: 6 mm = no activity
Description: as §1, §2, §3, §4, §5, §6

Candida abicans = experiment: Agar diffusion growth inhibition zone, Candida abicans; type: cell-based, Candida albicans; conditions: 6 mm = no activity
Description: as §1, §2, §3, §4, §5, §6

Pseudomonas sp. = experiment: Agar diffusion growth inhibition zone, Pseudomonas sp.; type: cell-based, Pseudomonas species; conditions: for zone of inhibition at 100000 µg/disc / zone of inhibition at 150000 µg/disc: Pseudomonas; for zone of inhibition: Pseudomonas sp., 6 mm = no activity
Description: as §7, §8

Proteus sp. = experiment: Agar diffusion growth inhibition zone, Proteus sp.; type: cell-based, Proteus species
Description: as §1, §2, §3, §4, §5, §6

Pleisiomonas sp. = experiment: Agar diffusion growth inhibition zone, Pleisiomonas sp.; type: cell-based, Pleisiomonas species; conditions: for zone of inhibition at 100 mg/mL / zone of inhibition at 150 mg/mL / zone of inhibition: Pleisiomonas sp., 6 mm = no activity; for inhibition of growth: Plesiomonas species
Description: as §1, §2, §3, §4, §5, §6

[1] = Proteus sp., 150 mg, 6 mm = no activity

In the case of `CCOC(=O)Oc1ccc(/C=C/C(=O)COC(=O)/C=C/c2ccc(OC(=O)OCC)c(OC)c2)cc1OC` [compound 7, Diethylcalebin-A dicarbonate], the “inhibition of growth” value (ETEC) is reported as “significantly inhibited the growth”, the zone of inhibition at 100000 µg/disc (ETEC) is reported as 10 mm and the zone of inhibition at 150000 µg/disc (ETEC) is reported as 10 mm. The zone of inhibition at 100 mg/mL (Citrobacter sp.; 100 mg) was 6 mm, the zone of inhibition at 150 mg/mL (Citrobacter sp.; 150 mg) was 6 mm and the zone of inhibition at 100 mg/mL (Enterococcus sp.; 100 mg) was 6 mm. It also gave a zone of inhibition at 150 mg/mL (Enterococcus sp.; 150 mg) of 6 mm, a zone of inhibition at 100 mg/mL (Klebsiella sp.; 100 mg) of 6 mm and a zone of inhibition at 150 mg/mL (Klebsiella sp.; 150 mg) of 6 mm. For the same compound, the zone of inhibition at 100 mg/mL (Aeromonas sp.; 100 mg) was 6 mm, the zone of inhibition at 150 mg/mL (Aeromonas sp.; 150 mg) was 6 mm and the zone of inhibition at 100 mg/mL (E. coli ATCC 25922) was 6 mm. The zone of inhibition at 150 mg/mL (E. coli ATCC 25922) was 6 mm, the zone of inhibition at 100000 µg/disc (Shigella sp.) was 6 mm and the zone of inhibition at 150000 µg/disc (Shigella sp.) was 6 mm. The zone of inhibition at 100 mg/mL (Salmonella typhimurium; 100 mg) was 6 mm, the zone of inhibition at 150 mg/mL (Salmonella typhimurium; 150 mg) was 6 mm and the zone of inhibition at 100 mg/mL (S. aureus; 100 mg, 6 mm = no activity) was 6 mm. It also gave a zone of inhibition at 150 mg/mL (S. aureus; 150 mg, 6 mm = no activity) of 6 mm, a zone of inhibition at 100000 µg/disc (Vibrio cholera) of 6 mm and a zone of inhibition at 150000 µg/disc (Vibrio cholera) of 6 mm. For the same compound, the “inhibition of growth” value (EAEC) was “inhibited”, the zone of inhibition at 100 mg/mL (EAEC; 100 mg) was 9 mm and the zone of inhibition at 150 mg/mL (EAEC; 150 mg) was 9 mm. For the same compound, the zone of inhibition at 100 mg/mL (Candida abicans; 100 mg) was 6 mm, the zone of inhibition at 150 mg/mL (Candida abicans; 150 mg) was 6 mm and the zone of inhibition at 100000 µg/disc (Pseudomonas sp.) was 6 mm. It also gave a zone of inhibition at 150000 µg/disc (Pseudomonas sp.) of 6 mm, a zone of inhibition at 150 mg/mL (Proteus sp.; [1]) of 6 mm and a zone of inhibition at 100 mg/mL (Pleisiomonas sp.; 100 mg) of 10 mm. The zone of inhibition at 150 mg/mL (Pleisiomonas sp.; 150 mg) was 10 mm and the “inhibition of growth” value (Pleisiomonas sp.) was “inhibited”.
In the case of `COc1cc(CCC(=O)/C=C(\N)CCc2ccc(O)c(OC)c2)ccc1O` [compound 9, Amino- tetrahydrocurcumin], the zone of inhibition at 100000 µg/disc (ETEC) is reported as 9 mm, the zone of inhibition at 150000 µg/disc (ETEC) is reported as 9 mm and the zone of inhibition at 100 mg/mL (Citrobacter sp.; 100 mg) is reported as 6 mm. For the same compound, the zone of inhibition at 150 mg/mL (Citrobacter sp.; 150 mg) was 6 mm, the zone of inhibition at 100 mg/mL (Enterococcus sp.; 100 mg) was 6 mm and the zone of inhibition at 150 mg/mL (Enterococcus sp.; 150 mg) was 6 mm. For the same compound, the zone of inhibition at 100 mg/mL (Klebsiella sp.; 100 mg) was 6 mm, the zone of inhibition at 150 mg/mL (Klebsiella sp.; 150 mg) was 6 mm and the zone of inhibition at 100 mg/mL (Aeromonas sp.; 100 mg) was 6 mm. The zone of inhibition at 150 mg/mL (Aeromonas sp.; 150 mg) was 6 mm, the zone of inhibition at 100 mg/mL (E. coli ATCC 25922) was 6 mm and the zone of inhibition at 150 mg/mL (E. coli ATCC 25922) was 6 mm. It also gave a zone of inhibition at 100000 µg/disc (Shigella sp.) of 6 mm, a zone of inhibition at 150000 µg/disc (Shigella sp.) of 6 mm and a zone of inhibition at 100 mg/mL (Salmonella typhimurium; 100 mg) of 6 mm. For the same compound, the zone of inhibition at 150 mg/mL (Salmonella typhimurium; 150 mg) was 6 mm, the zone of inhibition at 100 mg/mL (S. aureus; 100 mg, 6 mm = no activity) was 6 mm and the zone of inhibition at 150 mg/mL (S. aureus; 150 mg, 6 mm = no activity) was 6 mm. The zone of inhibition at 100000 µg/disc (Vibrio cholera) was 6 mm, the zone of inhibition at 150000 µg/disc (Vibrio cholera) was 6 mm and the zone of inhibition at 100 mg/mL (EAEC; 100 mg) was 6 mm. For the same compound, the zone of inhibition at 150 mg/mL (EAEC; 150 mg) was 6 mm, the zone of inhibition at 100 mg/mL (Candida abicans; 100 mg) was 6 mm and the zone of inhibition at 150 mg/mL (Candida abicans; 150 mg) was 6 mm. For the same compound, the zone of inhibition at 100000 µg/disc (Pseudomonas sp.) was 6 mm, the zone of inhibition at 150000 µg/disc (Pseudomonas sp.) was 6 mm and the zone of inhibition at 150 mg/mL (Proteus sp.; [1]) was 6 mm. For the same compound, the zone of inhibition at 100 mg/mL (Pleisiomonas sp.; 100 mg) was 6 mm and the zone of inhibition at 150 mg/mL (Pleisiomonas sp.; 150 mg) was 6 mm.
In the case of Demethoxycurcumin [compound 2], the “inhibition of growth” value (ETEC) is reported as “significantly inhibited the growth”, the zone of inhibition (ETEC; 100 mg) is reported as 12 mm and the zone of inhibition (ETEC; 150 mg) is reported as 12 mm. For the same compound, the zone of inhibition (Citrobacter sp.; 100 mg) was 6 mm, the zone of inhibition (Citrobacter sp.; 150 mg) was 6 mm and the zone of inhibition (Enterococcus sp.; 100 mg) was 6 mm. The zone of inhibition (Enterococcus sp.; 150 mg) was 6 mm, the zone of inhibition (Klebsiella sp.; 100 mg) was 6 mm and the zone of inhibition (Klebsiella sp.; 150 mg) was 6 mm. The zone of inhibition (Aeromonas sp.; 100 mg) was 9 mm, the zone of inhibition (Aeromonas sp.; 150 mg) was 9 mm and the “inhibition of growth” value (Aeromonas sp.; Aeromonas species) was “inhibited the growth”. For the same compound, the zone of inhibition (E. coli ATCC 25922; 100 mg) was 6 mm, the zone of inhibition (E. coli ATCC 25922; 150 mg) was 6 mm and the zone of inhibition (Shigella sp.; 100 mg) was 6 mm. The zone of inhibition (Shigella sp.; 150 mg) was 6 mm, the zone of inhibition (Salmonella typhimurium; 100 mg) was 6 mm and the zone of inhibition (Salmonella typhimurium; 150 mg) was 6 mm. It also gave a zone of inhibition (S. aureus; 100 mg, 6 mm = no activity) of 11 mm, a zone of inhibition (S. aureus; 150 mg, 6 mm = no activity) of 11 mm and a zone of inhibition (S. aureus; concentration not given) of 11 mm. It also gave a zone of inhibition (Vibrio cholera; 100 mg) of 6 mm, a zone of inhibition (Vibrio cholera; 150 mg) of 6 mm and a zone of inhibition (EAEC; 100 mg) of 6 mm. For the same compound, the zone of inhibition (EAEC; 150 mg) was 6 mm, the zone of inhibition (Candida abicans; 100 mg) was 6 mm and the zone of inhibition (Candida abicans; 150 mg) was 6 mm. It also gave a zone of inhibition (Pseudomonas sp.; 100 mg) of 6 mm, a zone of inhibition (Pseudomonas sp.; 150 mg) of 6 mm and a zone of inhibition (Proteus sp.; Proteus sp., 100 mg, 6 mm = no activity) of 12 mm. The zone of inhibition (Proteus sp.; [1]) was 12 mm, the zone of inhibition (Proteus sp.; Proteus species, at both concentrations of 100 mg and 150 mg) was 12 mm and the zone of inhibition (Pleisiomonas sp.; 100 mg) was 11 mm. For the same compound, the zone of inhibition (Pleisiomonas sp.; 150 mg) was 11 mm and the “inhibition of growth” value (Pleisiomonas sp.) was “inhibited”.
